Measured values: patent publication US10662204B2 (PFIZER INC., priority 2018, dated 2020)

Key:
KRAS G12C = KRAS G12C (Homo sapiens, UniProt P01116, G12C); experiment: Cell Activity Assay: accumulation of GDP-bound KRAS G12C in MIAPaCa-2 cells (Raf-1 RBD capture, MSD readout); format: cell-based; parameters: endogenous in cells; host or cells: MIAPaCa-2; conditions: 6 hours, assay limit is 30.00
Outline: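 MIAPaCa-2 cells exposed 6 h at 37 °C to 3-fold compound dilutions (0.3% DMSO final), then lysed. Active GTP-KRAS captured on Raf-1 RBD-coated plates, detected with anti-pan-Ras and SULFO-TAG secondary by MSD electrochemiluminescence. Signal normalized to DMSO and maximum inhibition; IC50 from 4-parameter fit.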

[1] = target: T1, GDP-loaded KRAS (1-169) G12C, C51S, C80L, C118S (Homo sapiens, UniProt P01116, C118S/C51S/C80L/G12C); experiment: Mass Spectrometry Reactivity Assay (MSRA): covalent adduct of compound and KRAS G12C, Percent Modification; format: binding; conditions: for MSRA (% modification) 5.0 μM 0.017 hr / MSRA (% modification) 5.0 μM 0.25 hr: 5.0 μM compound; for MSRA (% modification) 10 μM 0.25 hr / MSRA (% modification) 10 μM 0.50 hr: 10 μM compound
T1 construct: GDP-loaded KRAS (1-169) G12C, C51S, C80L, C118S
Outline: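 GDP-loaded KRAS(1-169) G12C/C51S/C80L/C118S at 5 μM in 25 mM Hepes pH 7.5, 200 mM NaCl, 5% glycerol incubated at RT with compound (typically 5 or 10 μM final, 1% DMSO). Quenched in formic acid at 1-60 min; intact-protein LC-TOF MS gives % modification = modified/(modified+unmodified).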

| SMILES | IC50 (KRAS G12C) | MSRA (% modification) 5.0 μM 0.017 hr [1] | MSRA (% modification) 10 μM 0.25 hr [1] | MSRA (% modification) 10 μM 0.50 hr [1] | MSRA (% modification) 5.0 μM 0.25 hr [1] |
| --- | --- | --- | --- | --- | --- |
| C=CC(=O)N1CCN(c2nc(O[C@@H]3CN(CCOC)C[C@H]3OC)nc3c(Oc4c(Cl)c(F)cc5[nH]ncc45)nccc23)CC1 [Example 18H, 1-[4-(8-[(5-chloro-6-fluoro-1H-indazol-4-yl)oxy]-2-{[(3R,4R)-4-methoxy-1-(2-methoxyethyl)pyrrolidin-3-yl]oxy}pyrido[3,4-d]pyrimidin-4-yl)piperazin-1-yl]prop-2-en-1-one] | 0.07 µM | 52% | – | – | – |
| C=CC(=O)N1CCN(c2nc(O[C@@H]3CN(C)C[C@@H]3C)nc3c(Oc4c(Cl)c(F)cc5[nH]ncc45)nc(Cl)cc23)CC1 (racemic) [Example 31G, rac-1-[4-(6-chloro-8-[(5-chloro-6-fluoro-1H-indazol-4-yl)oxy]-2-{[(3R,4R)-1,4-dimethylpyrrolidin-3-yl]oxy}pyrido[3,4-d]pyrimidin-4-yl)piperazin-1-yl]prop-2-en-1-one] | 0.135 µM | 26% | – | – | – |
| C=CC(=O)N1CCN(c2ncnc3c(Oc4c(Cl)c(F)cc5[nH]ncc45)nc(Cl)cc23)[C@@H](CO)C1 [Example 38A, 1-[(3R)-4-{6-chloro-8-[(5-chloro-6-fluoro-1H-indazol-4-yl)oxy]pyrido[3,4-d]pyrimidin-4-yl}-3-(hydroxymethyl)piperazin-1-yl]prop-2-en-1-one] | 0.537 µM | – | 56% | – | – |
| C=CC(=O)N1CCN(c2ncnc3c(Oc4c(F)ccc5[nH]ncc45)nccc23)CC1 [Example 08A, 1-(4-{8-[(5-fluoro-1H-indazol-4-yl)oxy]pyrido[3,4-d]pyrimidin-4-yl}piperazin-1-yl)prop-2-en-1-one] | 11.1 µM | – | – | 6% | – |
| C=CC(=O)N1CCN(c2nc(OC[C@@H]3CCCN3C)nc3c(Oc4c(C)c(Cl)cc5[nH]ncc45)nc(Cl)cc23)CC1 [Example 10G, 1-[4-(6-chloro-8-[(6-chloro-5-methyl-1H-indazol-4-yl)oxy]-2-{[(2S)-1-methylpyrrolidin-2-yl]methoxy}pyrido[3,4-d]pyrimidin-4-yl)piperazin-1-yl]prop-2-en-1-one] | 0.071 µM | – | 53% | – | – |
| C=CC(=O)N1CCN(c2nc(OCC3CCOC3)nc3c(Oc4c(Cl)c(F)cc5[nH]ncc45)nc(Cl)cc23)CC1 (stereo not drawn) [Example 12G, 1-(4-{6-chloro-8-[(5-chloro-6-fluoro-1H-indazol-4-yl)oxy]-2-(tetrahydrofuran-3-ylmethoxy)pyrido[3,4-d]pyrimidin-4-yl}piperazin-1-yl)prop-2-en-1-one] | 0.071 µM | – | 75% | – | – |
| C=CC(=O)N1CCN(c2nc(NCCC(=O)NC)nc3c(Oc4c(C)ccc5[nH]ncc45)cccc23)CC1 [Example 13F, N^3-{4-(4-acryloylpiperazin-1-yl)-8-[(5-methyl-1H-indazol-4-yl)oxy]quinazolin-2-yl}-N-methyl-β-alaninamide] | 17 µM | – | – | 26% | – |
| C=CC(=O)N1CCN(c2ncnc3c(Oc4c(C)c(Cl)cc5[nH]ncc45)nc(C#N)cc23)CC1 [Example 28A, 4-(4-acryloylpiperazin-1-yl)-8-[(6-chloro-5-methyl-1H-indazol-4-yl)oxy]pyrido[3,4-d]pyrimidine-6-carbonitrile] | 1.02 µM | – | – | 61% | – |
| C=CC(=O)N1CCN(c2nc(Oc3ccc(F)c4c3CN(C)CC4)nc3c(Oc4c(Cl)c(F)cc5[nH]ncc45)nccc23)CC1 [Example 54I, 1-(4-{8-[(5-chloro-6-fluoro-1H-indazol-4-yl)oxy]-2-[(5-fluoro-2-methyl-1,2,3,4-tetrahydro-isoquinolin-8-yl)oxy]pyrido [3,4-d]pyrimidin-4-yl}piperazin-1-yl)prop-2-en-1-one] | 0.019 µM | 78% | – | – | – |
| C=CC(=O)N1CCN(c2nc(OCCN(C)C)nc3c(Oc4c(C)ccc5[nH]ncc45)cccc23)CC1 [Example 03E, 1-(4-{2-[2-(dimethylamino)ethoxy]-8-[(5-methyl-1H-indazol-4-yl)oxy]quinazolin-4-yl}piperazin-1-yl)prop-2-en-1-one] | 1.44 µM | – | – | 40% | – |
| C=CC(=O)N1CCN(c2nc(OCc3cscn3)nc3c(Oc4c(C)ccc5[nH]ncc45)nccc23)CC1 [Example 22F, 1-(4-{8-[(5-methyl-1H-indazol-4-yl)oxy]-2-(1,3-thiazol-4-ylmethoxy)pyrido[3,4-d]pyrimidin-4-yl}piperazin-1-yl)prop-2-en-1-one] | 0.535 µM | – | – | – | 33% |
| C=CC(=O)N1CCN(c2ncnc3c(Oc4c(C)c(Cl)cc5[nH]ncc45)nccc23)CC1 [Example 14A, 1-(4-{8-[(6-chloro-5-methyl-1H-indazol-4-yl)oxy]pyrido[3,4-d]pyrimidin-4-yl}piperazin-1-yl)prop-2-en-1-one] | 0.545 µM | – | – | 67% | 46% |
| C=CC(=O)N1CCN(c2nc(OCCc3ncc[nH]3)nc3c(Oc4c(C)ccc5[nH]ncc45)cccc23)CC1 [Example 09F, 1-(4-{2-[2-(1H-imidazol-2-yl)ethoxy]-8-[(5-methyl-1H-indazol-4-yl)oxy]quinazolin-4-yl}piperazin-1-yl)prop-2-en-1-one] | 3 µM | – | 64% | 75% | – |
| C=CC(=O)N1CCN(c2nc(O[C@@H]3CN(C)C[C@H]3OC)nc3c(Oc4c(C)ccc5[nH]ncc45)nc(Cl)cc23)CC1 [Example 35G, 1-[4-(6-chloro-2-{[(3R,4R)-4-methoxy-1-methylpyrrolidin-3-yl]oxy}-8-[(5-methyl-1H-indazol-4-yl)oxy]pyrido[3,4-d]pyrimidin-4-yl)piperazin-1-yl]prop-2-en-1-one] | 0.027 µM | 75% | – | – | – |
| C=CC(=O)N1CCN(c2nc(OCC3(F)CCN(C)CC3)nc3c(Oc4c(Cl)c(F)cc5[nH]ncc45)nc(Cl)cc23)CC1 [Example 15G, 1-(4-{6-chloro-8-[(5-chloro-6-fluoro-1H-indazol-4-yl)oxy]-2-[(4-fluoro-1-methylpiperidin-4-yl)methoxy]pyrido[3,4-d]pyrimidin-4-yl}piperazin-1-yl)prop-2-en-1-one] | 0.019 µM | – | – | – | 80% |
| C=CC(=O)N1CCN(c2ncnc3c(Oc4c(C)c(Cl)cc5[nH]ncc45)nc(C#N)cc23)C[C@H]1C [Example 27A, 4-[(3R)-4-acryloyl-3-methylpiperazin-1-yl]-8-[(6-chloro-5-methyl-1H-indazol-4-yl)oxy]pyrido[3,4-d]pyrimidine-6-carbonitrile] | 13.3 µM | – | – | 30% | – |
| C=CC(=O)N1CCN(c2nc(OC[C@@H]3COCCN3C)nc3c(Oc4c(Cl)c(F)cc5[nH]ncc45)nccc23)CC1 [Example 03H, 1-[4-(8-[(5-chloro-6-fluoro-1H-indazol-4-yl)oxy]-2-{[(3S)-4-methylmorpholin-3-yl]methoxy}pyrido[3,4-d]pyrimidin-4-yl)piperazin-1-yl]prop-2-en-1-one] | 0.842 µM | – | – | 72% | 51% |
| C=CC(=O)N1CCN(c2ncnc3c(Oc4c(C)ccc5[nH]ncc45)nccc23)[C@@H](C)C1 [Example 10A, 1-[(3S)-3-methyl-4-{8-[(5-methyl-1H-indazol-4-yl)oxy]pyrido[3,4-d]pyrimidin-4-yl}piperazin-1-yl]prop-2-en-1-one] | 7.5 µM | – | – | 10% | – |
| C=CC(=O)N1CCN(c2nc(N3CC(N(C)C)C3)nc3c(Oc4c(Cl)c(C)cc5[nH]ncc45)nccc23)CC1 [Example 04E, 1-(4-{8-[(5-chloro-6-methyl-1H-indazol-4-yl)oxy]-2-[3-(dimethylamino)azetidin-1-yl]pyrido[3,4-d]pyrimidin-4-yl}piperazin-1-yl)prop-2-en-1-one] | 0.585 µM | – | 60% | 62% | 71% |
| C=CC(=O)N1CCN(c2nc(O[C@@H]3CN(C)C[C@H]3OC)nc3c(Oc4c(Cl)ccc5[nH]ncc45)nccc23)CC1 [Example 49I] | 0.17 µM | 34% | – | – | – |
| C=CC(=O)N1CCN(c2ncnc3c(Oc4c(C)c(Cl)cc5[nH]ncc45)nccc23)C[C@@H]1C [Example 23A, 1-[(2S)-4-{8-[(6-chloro-5-methyl-1H-indazol-4-yl)oxy]pyrido[3,4-d]pyrimidin-4-yl}-2-methylpiperazin-1-yl]prop-2-en-1-one] | 11.6 µM | – | – | 20% | – |
| C=CC(=O)N1CCN(c2nc(Oc3cccc4c3CCN(CC)C4)nc3c(Oc4c(C)ccc5[nH]ncc45)nccc23)CC1 [Example 31I, 1-(4-{2-[(2-ethyl-1,2,3,4-tetrahydro-isoquinolin-5-yl)oxy]-8-[(5-methyl-1H-indazol-4-yl)oxy]pyrido [3,4-d]pyrimidin-4-yl}piperazin-1-yl)prop-2-en-1-one] | 0.041 µM | 31% | – | – | – |
| C=CC(=O)N1CCN(c2nc(O[C@@H]3CN(C)CC[C@H]3C)nc3c(Oc4c(Cl)c(F)cc5[nH]ncc45)nccc23)CC1 (racemic) [Example 53I, rac-1-[4-(8-[(5-chloro-6-fluoro-1H-indazol-4-yl)oxy]-2-{[(3S,4R)-1,4-dimethyl-piperidin-3-yl]oxy}pyrido [3,4-d]pyrimidin-4-yl)piperazin-1-yl]prop-2-en-1-one] | 0.059 µM | 15% | – | – | – |
